Reference: PMC12006963, “Application of Deuterium in an M1 Positive Allosteric Modulator Back-Up Program: The Discovery of VU6045422” (ACS Chemical Neuroscience, 2025)
pEC50, pIC50: −log10 of the molar value. Where two headings read alike, the source gives them in different places.

Tests used:
M1 = biological target: T1, M1 (Homo sapiens, UniProt P11229); assay: Calcium mobilization, human M1 CHO cells (agonist and PAM modes); type: cell-based; conditions: for M1 agonism: in words
T1 construct: expressed in transfected cells
T1 sequence (P11229 1-460): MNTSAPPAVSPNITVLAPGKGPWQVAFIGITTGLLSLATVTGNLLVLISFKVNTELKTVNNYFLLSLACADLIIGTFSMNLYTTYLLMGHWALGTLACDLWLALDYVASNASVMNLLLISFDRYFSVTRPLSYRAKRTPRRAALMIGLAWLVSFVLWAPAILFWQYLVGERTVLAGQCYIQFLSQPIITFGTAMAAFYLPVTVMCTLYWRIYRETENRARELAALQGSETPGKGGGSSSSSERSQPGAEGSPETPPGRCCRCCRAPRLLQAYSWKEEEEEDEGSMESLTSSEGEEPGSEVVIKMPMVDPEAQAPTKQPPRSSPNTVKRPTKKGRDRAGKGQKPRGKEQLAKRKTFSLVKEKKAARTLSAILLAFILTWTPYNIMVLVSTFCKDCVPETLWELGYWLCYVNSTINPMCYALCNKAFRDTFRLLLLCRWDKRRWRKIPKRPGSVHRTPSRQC

CYP 2C9 = CYP 2C9 (Homo sapiens, UniProt P11712); assay: CYP inhibition 2C9; type: in vitro ADME
CYP 2C9, sequence (P11712 whole entry): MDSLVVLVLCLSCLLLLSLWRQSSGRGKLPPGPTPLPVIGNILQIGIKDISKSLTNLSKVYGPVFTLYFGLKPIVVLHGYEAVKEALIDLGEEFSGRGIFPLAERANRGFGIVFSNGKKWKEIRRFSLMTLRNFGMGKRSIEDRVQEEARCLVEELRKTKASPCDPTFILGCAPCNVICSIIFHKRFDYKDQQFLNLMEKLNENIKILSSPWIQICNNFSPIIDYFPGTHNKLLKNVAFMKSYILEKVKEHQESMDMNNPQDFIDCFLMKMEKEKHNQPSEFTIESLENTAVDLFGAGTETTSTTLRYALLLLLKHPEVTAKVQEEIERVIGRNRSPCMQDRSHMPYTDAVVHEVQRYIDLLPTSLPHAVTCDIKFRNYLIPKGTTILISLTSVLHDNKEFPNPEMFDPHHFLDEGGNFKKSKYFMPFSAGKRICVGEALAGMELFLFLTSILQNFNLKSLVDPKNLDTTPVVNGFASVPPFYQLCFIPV
Description: Table 1 Pharmacology and In Vitro DMPK Profiles of M1 PAMs 1, 3, and 5 | column: 1; 3; 5

[1] = Hepatocyte metabolite identification (dog); type: in vitro ADME; conditions: dog hepatocytes, 4 h incubation
Description: Prior to full characterization of deuterated analogues 3 and 5, they were incubated in rat, dog, monkey, and human hepatocytes, along with 1, to determine the amount of parent remaining, as well as the degree of undesired oxidative metabolites 2, 4, and 6 (Figure 2). […] For the gem-dideutero congener 3, metabolic stability was improved in vitro. […] Thus, in hepatocytes in vitro, the kinetic isotope effect engendered greater metabolic stability of the labile hot spot on the lactam. It remained to be seen if this effect would translate in vivo, but we first had to assess the impact of the deuterated analogues on molecular pharmacology, in vitro DMPK, standard low-dose in vivo DMPK and, if warranted, in vivo efficacy in a rat novel object recognition (NOR) behavioral assay.

[2] = Brain to plasma ratio in rat; type: in vivo; conditions: male, Sprague-Dawley, brain and plasma, intravenous, 0.2 mg/kg, rat (SD); for Kp at 15 min: brain/plasma; for Kp uu at 15 min: unbound brain/unbound plasma
Description: where Qh (hepatic blood flow, mL/min/kg) is 21 (human) or 70 (rat).
LC/MS/MS Bioanalysis of Samples from Plasma Protein Binding and Intrinsic Clearance […]
Samples were analyzed on a Thermo Electron TSQ Quantum Ultra triple quad mass spectrometer (San Jose, CA) via electrospray ionization (ESI) with two Themo Electron Accella pumps (San Jose, CA), and a Leap Technologies CTC PAL autosampler (Carrboro, NC). Analytes were separated by gradient elution on a dual column system with two Thermo Hypersil Gold (2.1 x 30 mm, 1.9 µm) columns (San Jose, CA) thermostated at 40 °C. HPLC mobile phase A was 0.1% formic acid in water and mobile phase B was 0.1% formic acid in acetonitrile. The gradient started […]
for 0.2 min; returned to 10% B in 0.1 min. The total run time was 1.3 min and the HPLC flow rate was 0.8 mL/min. While pump 1 ran the gradient method, pump 2 equilibrated the alternate column isocratically at 10% B. Compound optimization, data collection, and processing was performed using Thermo Electron's QuickQuan software (v2.3) and Xcalibur (v2.0.7 SP1).
In vivo DMPK experimental:
Determination of brain to plasma ratio:
All animal study procedures were approved by the Institutional Animal Care and Use Committee and were conducted in accordance with the National Institutes of Health regulations of animal care covered in Principles of Laboratory Animal Care (National Institutes of Health). All rats were fasted overnight prior to testing.
For determination of the brain over plasma ratio (Kp), compounds were formulated in 8% ethanol, 32% PEG400 and 60% DMSO (v/v/v) and administered as a single 0.2 mg/kg IV dose (1 mL/kg) to male, Sprague Dawley rats (n = 1) via injection into a surgically-implanted jugular vein catheter. At 15 min post dosing, blood sample was collected into chilled, K2EDTA anticoagulant-fortified tube and immediately placed on wet ice. The blood sample was then centrifuged (1700 rcf, 5 minutes, 4 °C) to obtain plasma sample. At the same post-administration time point, whole brain sample was obtained by rapid dissection, rinsed with PBS, and immediately frozen in individual tissue collection box (dry ice). All brain and plasma samples were stored at -80 °C until […]
Sample Analysis: Concentrations in plasma and brain homogenates were quantified by liquid chromatography tandem mass spectrometry (LC-MS/MS). Whole brains were homogenized in 3 mL of 70:30 IPA:water in a mini bead beater for 3 min, and centrifuged at 3,500 g for 5 min. 5 uL of the supernatant was diluted in 15 uL of blank plasma for quantification of the analytes. Plasma samples were centrifuged at 3,500 g for 5 min. A standard curve was generated by diluting the analytes DMSO stocks with blank plasma to obtain a final concentration of 10,000 ng/ml followed by a serial dilution down to 0.5 ng/ml. Quality controls were generated by a serial dilution of the 5,000 ng/ml standard curve solution in blank plasma to obtain 3 concentrations of 500, 50, and 5 ng/ml. 20 uL of brain diluted in plasma, plasma, blank plasma, standard curve and QC samples were loaded in a V-bottom 96-well plate. 120 uL of acetonitrile containing 0.05 uM carbamazepine (internal standard) was added to each well and the plate was centrifuged at 3,500 g for 5 min. 60 uL of the supernatant of each well (protein free) was transferred to a new 96-well plate containing 60 uL of water. The plates were sealed for analysis by LC-MS/MS.
Plasma and brain tissue samples originating from in vivo studies were analyzed by electrospray ionization using an AB Sciex Q-TRAP 5500 (Foster City, CA) that was coupled to a Shimadzu LC-20AD pump (Columbia, MD) and a Leap Technologies CTC PAL auto-sampler (Carrboro, NC). Analytes were separated by gradient elution using a C18 column (3 x 50 mm, 3 mm; Fortis Technologies Ltd, Cheshire, UK) that was thermostated at 40 °C. HPLC mobile phase A was 0.1% formic acid in water (pH unadjusted); mobile phase B was 0.1% formic acid in acetonitrile (pH […]

[3] = PAM mode, read-out: hM1 PAM EC50
[4] = agonist mode, read-out: hM1 Agonist EC50

| SMILES | hM1 PAM AChmax (%) (M1) | pEC50 (M1; [3]) | pEC50 (M1; [4]) | hM1 PAM AChmax (%) (pEC50 line) (M1; mean ± spread) | pIC50 (CYP 2C9) | % Total Peak Area, parent remaining [1] [%] | Kp at 15 min [2] | Kp uu at 15 min [2] | M1 agonism (M1) | EC50 (M1; mean ± spread, n in cell, read-out: hM1 PAM pEC50 (converted)) [µM] |
| --- | --- | --- | --- | --- | --- | --- | --- | --- | --- | --- |
| Cn1cc2c(-c3cc(F)c(CN4Cc5ncccc5C4=O)c(F)c3)cccc2n1 [compound 1] | 80 | 6.31 | < 4.52 | 71±9.9 | < 4.52 | 71.7 | 0.77 | 1.3 |  |  |
| [2H]C1([2H])c2ncccc2C(=O)N1Cc1c(F)cc(-c2cccc3nn(C)cc23)cc1F [compound 3] | 81 | 6.20 | < 4.52 | 78±2.2 | 4.76 | 91.9 | 0.63 | 0.57 | minimal M1 agonism |  |
| [2H]C1([2H])c2ncccc2C(=O)N1Cc1c(F)cc(-c2cccc3nn(C([2H])([2H])[2H])cc23)cc1F [compound 5] | 80 | 6.72 | < 4.52 | 82±1.8 | 5.06 | 87.8 | 1.1 | 1.5 | minimal M1 agonism | 0.182 |
